Laboratory results from PubChem BioAssay AID2060491 (Molecular Pharmacology Branch, DTP, NCI, 2025).
Values joined by “and” are separate entries in the source; they are usually repeats but may differ in a detail not shown here. Identical values can stand only once.

Test system: 857933-349-R-J2-PDC complex spheroids, viability
Test: Anticancer human tumor 857933-349-R-J2-PDC patient-derived colon adenocarcinoma cell line growth inhibition [GQUAD]
Details: for viability, T/C: stronger effect = lower value
Text: DNA G-quadruplex Stabilizer Agents in Combinations in Complex Spheroids
A high-throughput screen of multi-cell type tumor spheroids was designed to identify active combinations of DNA G-quadruplex stabilizer agents and targeted small molecules. Complex spheroids include a stromal component modeled by human endothelial cells (HUVEC) and fibroblasts modeled by human mesenchymal stem cells (MSCs). The concentration ranges selected for each drug and investigational agent were based upon clinically achievable concentrations if the clinical Cmax of the agent was known.
Compounds. The drugs and investigational agents: pidnarulex (CX-5461; NSC782164), APTO-253 (NSC789042), BRACO-19 (NSC847499), peposertib (NSC802822), ceralasertib (NSC780249), elimusertib (NSC800525), camonsertib (NSC841442), AZD-1390 (NSC803789), olaparib (NSC753686), talazoparib (NSC767125), ART-558 (NSC835418), sotorasib (NSC818433), MRTX-1133 (NSC836407), SN-38 (NSC673596), topotecan (NSC609699), etoposide (NSC141540), doxorubicin (NSC123127), gemcitabine (NSC613327), 5-fluorouracil (NSC19893), paclitaxel (NSC125973), vemurafenib (NSC761431), panobinostat (NSC761190), R-306465 (JNJ-16241199; NSC773264), adavosertib (NSC754352), TP-3654 (NSC805149), carboplatin (NSC241240), KSQ-4279 (NSC840948), and staurosporine (NSC755774) were obtained from the National Cancer Institute (NCI) Developmental Therapeutics Program Chemical Repository (34). The FDA-approved anticancer drug set is available from the NCI Developmental Therapeutics Program. […] The stock solutions were prepared in dimethyl sulfoxide (DMSO, Sigma-Aldrich, St. Louis, MO, cat. D2650) at 800-fold the tested concentration and stored at -70 degrees C prior to their use. All drugs and investigational agents were tested over a range starting from a high concentration at or near the clinical Cmax and decreasing in half-log increments. If the clinical Cmax for an agent had not been determined, the highest concentration tested was 10 microM.
2.3 Cell Culture. All cells were maintained in an incubator at 37 degrees C and 5% CO2 with 95% humidity. The PDC lines were cultured according to standard operating procedures established by the NCI PDMR. All PDCs were thawed and cultured in Matrigel-coated flasks prepared with a working solution of 1X Ham's F-12 nutrient mix, without supplementation (Invitrogen, cat. 11765054), 100 U/mL penicillin-streptomycin (Invitrogen, cat. 15140122), and 2.5% Matrigel (Corning Inc., cat. 354248) for the first three passages. The 857933-349-R-J2-PDC line was cultured in 6C/Colon 1B media, which includes advanced DMEM/F-12 (Thermo Fisher Scientific, cat. 12634028), 10 mM HEPES (Thermo Fisher Scientific, cat. 15630080), 1X GlutaMAX supplement (Thermo Fisher Scientific, cat. 35050061), 0.1 mg/mL primocin (InvivoGen, cat. ant-pm-2), 10% defined fetal bovine serum, heat inactivated (HyClone Laboratories Inc., cat. SH30070.03HI), 50% L-WRN conditioned media (ATCC, cat. CRL-3276), 1.25 mM N-Acetyl-L-cysteine (Sigma-Aldrich, cat. A9165), 10 mM nicotinamide (Sigma-Aldrich, cat. N0636), 1X B-27 supplement (Thermo Fisher Scientific, cat. 17504044), 1X N-2 supplement (Thermo Fisher Scientific, cat. 17502048), 10 microM Y-27632 dihydrochloride (Tocris Bioscience, cat. 1254), and 50 ng/mL human EGF recombinant protein (Thermo Fisher Scientific, cat. PHG0311). The 485176-168-R4-J1-PDC line was cultured in Panc media, which includes all 6C/Colon 1B media components plus 100 ng/mL human FGF-10 (Thermo Fisher Scientific, cat. 100-26), 500 nM SB-431542 (Selleckchem, cat. S1067), and gastrin (Tocris, cat. 3006).
[…]
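Also: spheroids exposed to compounds for one week before readout.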
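For viability, T/C in this document: percent viability relative to vehicle DMSO wells taken as 100%.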

SMILES: CCCS(=O)(=O)Nc1ccc(F)c(C(=O)c2c[nH]c3ncc(-c4ccc(Cl)cc4)cc23)c1F + Cc1cnc(CNC(=O)c2c(=O)c3ccc(N4CCCN(C)CC4)nc3n3c2sc2ccccc23)cn1
- IC50 (curve of first compound, second compound 0.0316 µM): 5200 nM
- IC50 (curve of first compound, second compound 0.1 µM): 1720 nM
- IC50 (curve of first compound, second compound 0.316 µM): < 31.6 nM
- IC50 (curve of first compound, second compound 1 µM): < 31.6 nM
- IC50 (curve of first compound, second compound 3.16 µM): < 31.6 nM
- IC50 (curve of first compound, second compound 10 µM): < 31.6 nM
- viability, T/C (second compound 0.0316 µM, first compound 0.0316 µM): 85.1%
- viability, T/C (second compound 0.0316 µM, first compound 0.1 µM): 88.8%
- viability, T/C (second compound 0.0316 µM, first compound 0.316 µM): 77.6%
- viability, T/C (second compound 0.0316 µM, first compound 1 µM): 83.8%
- viability, T/C (second compound 0.0316 µM, first compound 3.16 µM): 86.5%
- viability, T/C (second compound 0.0316 µM, first compound 10 µM): 4.81%
- viability, T/C (second compound 0.1 µM, first compound 0.0316 µM): 56.2%
- viability, T/C (second compound 0.1 µM, first compound 0.1 µM): 58.5%
- viability, T/C (second compound 0.1 µM, first compound 0.316 µM): 52.4%
- viability, T/C (second compound 0.1 µM, first compound 1 µM): 48.9%
- viability, T/C (second compound 0.1 µM, first compound 3.16 µM): 47.5%
- viability, T/C (second compound 0.1 µM, first compound 10 µM): 3.42%
- viability, T/C (second compound 0.316 µM, first compound 0.0316 µM): 24%
- viability, T/C (second compound 0.316 µM, first compound 0.1 µM): 20.3%
- viability, T/C (second compound 0.316 µM, first compound 0.316 µM): 19.5%
- viability, T/C (second compound 0.316 µM, first compound 1 µM): 12.1%
- viability, T/C (second compound 0.316 µM, first compound 3.16 µM): 5.66%
- viability, T/C (second compound 0.316 µM, first compound 10 µM): 1.91%
- viability, T/C (second compound 1 µM, first compound 0.0316 µM): 3.43%
- viability, T/C (second compound 1 µM, first compound 0.1 µM): 2.87%
- viability, T/C (second compound 1 µM, first compound 0.316 µM): 2.84%
- viability, T/C (second compound 1 µM, first compound 1 µM): 2.64%
- viability, T/C (second compound 1 µM, first compound 3.16 µM): 3.04%
- viability, T/C (second compound 1 µM, first compound 10 µM): 1.06%
- viability, T/C (second compound 3.16 µM, first compound 0.0316 µM): 2.4%
- viability, T/C (second compound 3.16 µM, first compound 0.1 µM): 2.36%
- viability, T/C (second compound 3.16 µM, first compound 0.316 µM): 2.38%
- viability, T/C (second compound 3.16 µM, first compound 1 µM): 1.58%
- viability, T/C (second compound 3.16 µM, first compound 3.16 µM): 2.13%
- viability, T/C (second compound 3.16 µM, first compound 10 µM): 0.14%
- viability, T/C (second compound 10 µM, first compound 0.0316 µM): 0.2%
- viability, T/C (second compound 10 µM, first compound 0.1 µM): 0.21%
- viability, T/C (second compound 10 µM, first compound 0.316 µM): 0.23%
- viability, T/C (second compound 10 µM, first compound 1 µM): 0.22%
- viability, T/C (second compound 10 µM, first compound 3.16 µM): 0.23%
- viability, T/C (second compound 10 µM, first compound 10 µM): 0.22%

SMILES: COc1cccc2c1C(=O)c1c(O)c3c(c(O)c1C2=O)CC(O)(C(=O)CO)CC3OC1CC(N)C(O)C(C)O1 (stereo unspecified)
- viability, T/C (compound 0.0316 µM): 84.6% and 101% and 86.6%
- viability, T/C (compound 0.1 µM): 60% and 94.5% and 51.8%
- viability, T/C (compound 0.316 µM): 57.6% and 71.5% and 49.7%
- viability, T/C (compound 1 µM): 43.2% and 45.9% and 44.8%
- viability, T/C (compound 3.16 µM): 7.65% and 8.98% and 6.13%
- viability, T/C (compound 10 µM): 0.27% and 0.59% and 0.13%
- IC50 (curve of compound): 415 nM and 751 nM and 277 nM

SMILES: CN(C)c1ccc(Nc2c3ccc(NC(=O)CCN4CCCC4)cc3nc3cc(NC(=O)CCN4CCCC4)ccc23)cc1
- viability, T/C (compound 0.0316 µM): 104% [middle of 12 runs]
- viability, T/C (compound 0.1 µM): 105% [middle of 12 runs]
- viability, T/C (compound 0.316 µM): 106% [middle of 12 runs]
- viability, T/C (compound 1 µM): 103% [middle of 12 runs]
- viability, T/C (compound 3.16 µM): 88.4% [middle of 12 runs]
- viability, T/C (compound 10 µM): 74.7% [middle of 12 runs]
- IC50 (compound alone, run of 02/26/2024): > 10000 nM
